In EP4568957B1, “SUBSTITUTED PHENYL OXOOXAZOLYL PIPERIDINE DIONE COMPOUNDS” (Bristol-Myers Squibb Company, priority 2023, dated 2025):

Tests used:
Assay type in all cases: cell-based
IKZF4 Eos = target: T1, IKZF4 Eos (Homo sapiens, UniProt Q96SW2+Q9H2S9); assay: Human Regulatory T Cell Degradation Assay; details: human regulatory T cells, 20 hours; for DC50: vs DMSO alone
T1 construct: endogenous in cells; host or cells: primary human CD4+CD127lowCD25+ Treg cells from healthy leukopaks

IKZF2 Helios = IKZF2 Helios (Homo sapiens, UniProt Q96SW2+Q9UKS7); assay: Human Regulatory T Cell Degradation Assay; set-up: endogenous in cells; host or cells: primary human CD4+CD127lowCD25+ Treg cells from healthy leukopaks; details: human regulatory T cells, 20 hours; for DC50: vs DMSO alone
Procedure: Cryopreserved human regulatory T cells were thawed in RPMI + 10%FBS + 20 ng/mL IL-2. After being spun at 1200 rpm for 5 mins, the cells were resuspended in RPMI + 10% FBS+ 20 ng/mL and rested at 37 °C with 5% CO2 for 3 hours. The cells were then plated at 40,000 cells/well in 40 µL RPMI + 10% FBS + 20 ng/mL human IL-2 in a 384 well cell culture plate prior to using acoustic dispensing technology (ECHO 555) for adding compounds of interest. Cell cultures were incubated for 20 hours at 37 °C and 5% CO2. In order to facilitate analysis, cell cultures were spun down at 1200 rpm for 5 minutes and the supernatant was discarded using an EL406 plate washer. After washing three times with 70 µL PBS, cell pellets were resuspended in 50 µL of near IR viability staining solution (Life Technologies, Cat# L34975) and incubated for 30 minutes on ice protected from light. Cells were washed three times with 70 µL PBS + 0.5% BSA using an EL406 plate washer. After shaking the plate to dislodge the cell pellet, cells were resuspended in 50 µL of Fixation Buffer (eBioScience FoxP3 buffer set 00-5523-00) for 60 minutes at room temperature. After centrifuging and discarding the supernatant, cells were permeabilized with 50 µL of permeabilization buffer (eBioScience FoxP3 buffer set 00-5523-00) for 10 minutes at room temperature. Following permeabilization, cells were spun down and the supernatant was replaced with 30 µL fluorescently labelled antibodies against the intracellular targets Helios (Helios-APC [BioLegend, Cat# 137222, 1:50]), Aiolos, and Ikaros lx Permeabilization buffer and staining reactions were incubated for 1 hour at room temperature; protected from light. Subsequently, 30 µL of lx Permeabilization buffer was added prior to centrifuging the cells and discarding the supernatant. Stained cells were resuspended in 30 µL of flow cytometry staining buffer (PBS + 0.5%BSA) and analyzed using an Intellicyt Ique Plus flow cytometer. TABLE B-1

IKZF1 Ikaros [1] = target: T2, IKZF1 Ikaros (Homo sapiens, UniProt Q13422+Q96SW2); assay: Human Regulatory T Cell Degradation Assay; set-up: Foxp3-BV421, HELIOS-PE-Cy7, EOS-PE, IKAROS-PECF594, AIOLOS-AF647; endogenous in cells; host or cells: human PBMC from healthy donors (CD8+ T cells gated by flow cytometry); details: human regulatory T cells, 20 hours; for DC50: vs DMSO alone
IKZF3 Aiolos [2] = target: T3, IKZF3 Aiolos (Homo sapiens, UniProt Q96SW2+Q9UKT9); assay: Human Regulatory T Cell Degradation Assay; set-up: Foxp3-BV421, HELIOS-PE-Cy7, EOS-PE, IKAROS-PECF594, AIOLOS-AF647; endogenous in cells; host or cells: human PBMC from healthy donors (CD8+ T cells gated by flow cytometry); details: human regulatory T cells, 20 hours; for DC50: vs DMSO alone
IKZF1 Ikaros [3] = target: T2, IKZF1 Ikaros; assay: Human CD8+ T Cell Reprogramming Assay (method headed Human CD8+ T Cell Degradation Assay); set-up: Foxp3-BV421, HELIOS-PE-Cy7, EOS-PE, IKAROS-PECF594, AIOLOS-AF647; endogenous in cells; host or cells: human PBMC from healthy donors (CD8+ T cells gated by flow cytometry); details: for IKZF1* Ikaros max % deg. observed: Table E summary, Human CD8+ T Cell Reprogramming Assay (D-1); for DC50 / IKZF1 Ikaros Maximum Observed Degradation: human PBMC, CD8+ T cells, 24 hours; for DC50: vs DMSO alone
Procedure: (§1) Cryopreserved healthy donor human peripheral blood mononuclear cells (PBMC) from healthy donors were thawed and seeded at 500,000 cells/well of 96-well round bottom plates in RPMI 1640 media (Gibco) supplemented with 10% FBS, Pen/Strep (Gibco), MEM-NEAA (Gibco), and sodium pyruvate (Gibco). Cells were treated with titrated doses of compound for 24 hours at 37 °C, 5% CO2, before analyzing by flow cytometry.
(§2) For flow cytometry staining, cells were washed twice with flow cytometry staining buffer (Thermo Fisher) and incubated in Human Tru-stain Fc block (Biolegend) for 10 minutes before adding eFluor780 viability dye (Thermo Fisher) and surface marker antibody cocktail containing LD-eFluor780, CD3-BUV-395, CD4-BUV805, CD8-FITC, and CD25-BV605 for 30 minutes at 4 °C, Cells were then fixed and permeabilized by incubation with permeabilization buffer (eBioscience FoxP3 buffer set 00-5523-00) for 30 minutes at 4 °C as per the kit manufacturer's instructions. Cells were washed twice with the Perm/Wash buffer supplied in the kit as per the manufacturer's instructions and incubated overnight at 4 °C with an intracellular antibody cocktail comprised of antibodies specific for the transcription factors (i.e. , Foxp3-BV421, HELIOS-PE-Cy7, EOS-PE, IKAROS-PECF594, AIOLOS-AF647). Cells were washed twice with Perm/Wash buffer and resuspended in flow cytometry staining buffer (Thermo Fisher) prior to acquisition. Sample acquisition and analysis was performed using a BD LSRFortessa (BD Biosciences) flow cytometer. Single-stain controls for each fluorochrome were prepared using UltraComp eBead Compensation Beads (Thermo Fisher). Data were analyzed using FlowJo version 10 and GraphPad Prism Software. TABLE D-1

IKZF3 Aiolos [4] = target: T3, IKZF3 Aiolos; assay: as above; set-up: Foxp3-BV421, HELIOS-PE-Cy7, EOS-PE, IKAROS-PECF594, AIOLOS-AF647; endogenous in cells; host or cells: human PBMC from healthy donors (CD8+ T cells gated by flow cytometry); details: for IKZF3* Aiolos max % deg. observed: Table E summary, Human CD8+ T Cell Reprogramming Assay (D-1); for DC50 / IKZF3 Aiolos Maximum Observed Degradation: human PBMC, CD8+ T cells, 24 hours; for DC50: vs DMSO alone
Procedure: as §1, §2

T1 sequence (Q9H2S9 whole entry): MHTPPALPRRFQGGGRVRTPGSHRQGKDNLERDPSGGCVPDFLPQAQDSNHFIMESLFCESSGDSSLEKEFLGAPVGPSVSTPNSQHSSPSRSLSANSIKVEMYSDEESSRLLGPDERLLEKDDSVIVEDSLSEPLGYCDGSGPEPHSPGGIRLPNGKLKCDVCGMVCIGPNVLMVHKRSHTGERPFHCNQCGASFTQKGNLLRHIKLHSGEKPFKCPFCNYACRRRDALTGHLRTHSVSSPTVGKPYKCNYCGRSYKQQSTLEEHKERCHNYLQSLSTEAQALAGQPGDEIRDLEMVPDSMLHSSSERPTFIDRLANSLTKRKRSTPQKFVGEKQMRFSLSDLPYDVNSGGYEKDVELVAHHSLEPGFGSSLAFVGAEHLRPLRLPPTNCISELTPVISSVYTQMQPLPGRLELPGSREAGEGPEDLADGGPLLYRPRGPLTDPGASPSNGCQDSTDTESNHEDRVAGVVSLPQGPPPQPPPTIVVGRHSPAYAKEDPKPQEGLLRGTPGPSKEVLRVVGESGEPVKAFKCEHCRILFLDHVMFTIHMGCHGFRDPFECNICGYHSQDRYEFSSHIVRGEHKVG
T1 sequence (Q96SW2 whole entry): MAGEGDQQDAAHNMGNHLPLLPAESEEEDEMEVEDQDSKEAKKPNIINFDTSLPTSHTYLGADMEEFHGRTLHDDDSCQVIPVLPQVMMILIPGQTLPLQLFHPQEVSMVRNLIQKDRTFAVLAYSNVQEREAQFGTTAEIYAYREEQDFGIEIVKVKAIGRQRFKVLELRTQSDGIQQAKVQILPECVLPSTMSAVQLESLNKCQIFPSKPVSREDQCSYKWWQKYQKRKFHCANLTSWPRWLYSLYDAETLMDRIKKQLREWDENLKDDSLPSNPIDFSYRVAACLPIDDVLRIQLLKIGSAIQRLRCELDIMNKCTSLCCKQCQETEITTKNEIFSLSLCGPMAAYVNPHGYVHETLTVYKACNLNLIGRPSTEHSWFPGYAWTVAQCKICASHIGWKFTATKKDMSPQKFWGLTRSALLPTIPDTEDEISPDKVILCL
T1 sequence (Q16531 whole entry partner): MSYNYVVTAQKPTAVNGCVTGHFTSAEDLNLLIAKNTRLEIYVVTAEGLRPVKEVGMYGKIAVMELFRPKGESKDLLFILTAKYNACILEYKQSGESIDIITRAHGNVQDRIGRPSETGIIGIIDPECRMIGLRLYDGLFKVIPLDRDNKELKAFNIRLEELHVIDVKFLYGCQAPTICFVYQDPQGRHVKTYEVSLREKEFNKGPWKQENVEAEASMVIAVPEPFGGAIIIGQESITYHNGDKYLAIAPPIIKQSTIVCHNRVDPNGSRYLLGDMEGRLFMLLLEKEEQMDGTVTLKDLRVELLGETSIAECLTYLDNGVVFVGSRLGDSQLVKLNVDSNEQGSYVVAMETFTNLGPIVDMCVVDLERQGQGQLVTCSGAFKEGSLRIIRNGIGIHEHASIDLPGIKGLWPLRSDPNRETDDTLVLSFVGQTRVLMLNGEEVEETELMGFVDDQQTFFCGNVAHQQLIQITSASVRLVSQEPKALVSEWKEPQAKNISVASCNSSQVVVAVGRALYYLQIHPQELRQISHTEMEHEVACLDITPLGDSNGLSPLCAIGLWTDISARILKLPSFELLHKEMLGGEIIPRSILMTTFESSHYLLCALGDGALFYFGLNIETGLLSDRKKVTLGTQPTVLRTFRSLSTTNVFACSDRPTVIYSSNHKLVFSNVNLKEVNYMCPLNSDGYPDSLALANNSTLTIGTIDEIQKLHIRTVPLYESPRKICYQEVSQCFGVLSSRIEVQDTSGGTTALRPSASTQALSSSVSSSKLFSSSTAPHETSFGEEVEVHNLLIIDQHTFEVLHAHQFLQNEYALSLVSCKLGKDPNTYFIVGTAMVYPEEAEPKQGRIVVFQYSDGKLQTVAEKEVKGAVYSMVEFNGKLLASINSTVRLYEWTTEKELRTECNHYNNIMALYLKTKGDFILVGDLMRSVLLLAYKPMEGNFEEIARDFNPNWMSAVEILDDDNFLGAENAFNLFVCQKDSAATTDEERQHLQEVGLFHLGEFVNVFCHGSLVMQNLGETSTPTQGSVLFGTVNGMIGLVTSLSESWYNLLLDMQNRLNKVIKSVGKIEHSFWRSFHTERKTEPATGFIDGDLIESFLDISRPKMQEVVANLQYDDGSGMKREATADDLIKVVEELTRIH
T2 sequence (Q13422 whole entry): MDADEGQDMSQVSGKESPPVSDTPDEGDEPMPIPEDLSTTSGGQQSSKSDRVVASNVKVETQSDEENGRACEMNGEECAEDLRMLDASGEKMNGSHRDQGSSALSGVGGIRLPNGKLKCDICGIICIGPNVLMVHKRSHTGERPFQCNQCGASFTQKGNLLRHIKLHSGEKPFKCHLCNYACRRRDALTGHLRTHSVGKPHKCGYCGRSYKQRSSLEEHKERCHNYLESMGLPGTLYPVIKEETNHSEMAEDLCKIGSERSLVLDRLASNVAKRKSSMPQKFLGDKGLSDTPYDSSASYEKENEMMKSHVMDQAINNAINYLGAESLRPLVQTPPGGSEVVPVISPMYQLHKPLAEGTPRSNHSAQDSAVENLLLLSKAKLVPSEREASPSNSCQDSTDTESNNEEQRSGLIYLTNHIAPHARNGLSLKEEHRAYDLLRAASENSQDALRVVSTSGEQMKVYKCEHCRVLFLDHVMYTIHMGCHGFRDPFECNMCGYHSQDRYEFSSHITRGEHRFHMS
T2 sequence (Q96SW2 whole entry): as the sequence (Q96SW2 whole entry) above
T2 sequence (Q16531 whole entry partner): as the sequence (Q16531 whole entry partner) above
T3 sequence (Q9UKT9 whole entry): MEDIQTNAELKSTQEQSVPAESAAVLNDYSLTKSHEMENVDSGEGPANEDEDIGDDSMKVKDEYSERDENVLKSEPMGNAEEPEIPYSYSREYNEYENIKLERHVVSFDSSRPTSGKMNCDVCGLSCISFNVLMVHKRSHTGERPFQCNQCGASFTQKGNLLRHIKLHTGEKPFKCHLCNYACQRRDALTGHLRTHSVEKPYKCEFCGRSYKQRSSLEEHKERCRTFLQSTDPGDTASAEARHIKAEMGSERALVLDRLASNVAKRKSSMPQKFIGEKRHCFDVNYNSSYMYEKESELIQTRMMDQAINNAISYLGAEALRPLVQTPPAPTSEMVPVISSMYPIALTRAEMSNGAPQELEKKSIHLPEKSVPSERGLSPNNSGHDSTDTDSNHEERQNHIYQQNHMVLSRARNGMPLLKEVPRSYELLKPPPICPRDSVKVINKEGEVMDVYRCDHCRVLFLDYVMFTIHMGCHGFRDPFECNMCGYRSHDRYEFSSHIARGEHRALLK
T3 sequence (Q96SW2 whole entry): as the sequence (Q96SW2 whole entry) above
T3 sequence (Q16531 whole entry partner): as the sequence (Q16531 whole entry partner) above
Sequence of IKZF2 Helios (Q9UKS7 whole entry): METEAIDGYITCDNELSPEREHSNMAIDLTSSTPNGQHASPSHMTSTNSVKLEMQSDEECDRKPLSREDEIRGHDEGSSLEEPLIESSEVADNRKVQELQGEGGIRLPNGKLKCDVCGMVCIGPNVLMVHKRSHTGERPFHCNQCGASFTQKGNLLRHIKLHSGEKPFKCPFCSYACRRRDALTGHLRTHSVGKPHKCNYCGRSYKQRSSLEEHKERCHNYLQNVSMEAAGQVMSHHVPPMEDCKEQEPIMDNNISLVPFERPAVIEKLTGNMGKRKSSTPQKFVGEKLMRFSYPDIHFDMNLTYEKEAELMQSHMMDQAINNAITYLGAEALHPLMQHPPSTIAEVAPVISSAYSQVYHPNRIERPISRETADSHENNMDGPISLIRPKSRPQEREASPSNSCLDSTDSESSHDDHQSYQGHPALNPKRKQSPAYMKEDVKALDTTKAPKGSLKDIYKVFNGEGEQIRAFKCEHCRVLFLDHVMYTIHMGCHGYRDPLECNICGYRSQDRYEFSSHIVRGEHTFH
Sequence of IKZF2 Helios (Q96SW2 whole entry): as the sequence (Q96SW2 whole entry) above
Sequence of IKZF2 Helios (Q16531 whole entry partner): as the sequence (Q16531 whole entry partner) above

IKZF4 Eos max % deg. observed (IKZF4 Eos) | DC50 (IKZF4 Eos) | IKZF2 Helios max % deg. observed (IKZF2 Helios) | DC50 (IKZF2 Helios) | IKZF1 Ikaros max % deg. observed (IKZF1 Ikaros [1]) | DC50 (IKZF1 Ikaros [1]) | IKZF3 Aiolos max % deg. observed (IKZF3 Aiolos [2]) | DC50 (IKZF3 Aiolos [2]) | IKZF1* Ikaros max % deg. observed (IKZF1 Ikaros [3]) | DC50 (IKZF1 Ikaros [3]) | IKZF3* Aiolos max % deg. observed (IKZF3 Aiolos [4]) | DC50 (IKZF3 Aiolos [4]) | IKZF1 Ikaros Maximum Observed Degradation (IKZF1 Ikaros [3]) | IKZF3 Aiolos Maximum Observed Degradation (IKZF3 Aiolos [4]) | Structure (SMILES)
59% | 141 nM | 98% | 51 nM | 58% | 6470 nM | 25% | > 10000 nM | 67% | 181 nM | 67% | 193 nM |  |  | Cc1cc(-c2ccc(-c3cn(C4CCC(=O)NC4=O)c(=O)o3)c(F)c2)nc(N)c1NCC1CCOCC1 (stereo not shown) [Example 3, 3-(5-(4-(6-amino-4-methyl-5-(((tetrahydro-2H-pyran-4-yl)methyl)amino)pyridin-2-yl)-2-fluorophenyl)-2-oxooxazol-3(2H)-yl)piperidine-2,6-dione]
62% | 203 nM | 98% | 59 nM | 67% | 3790 nM | 35% | > 10000 nM | 80% | 15 nM | 77% | 18 nM |  |  | COC1CCN(Cc2ccc(-c3ccc(-c4cn(C5CCC(=O)NC5=O)c(=O)o4)c(F)c3)nc2N)CC1 (stereo not shown) [Example 4, 3-(5-(4-(6-amino-5-((4-methoxypiperidin-1-yl)methyl)pyridin-2-yl)-2-fluorophenyl)-2-oxooxazol-3(2H)-yl)piperidine-2,6-dione]
67% | 575 nM | 98% | 46 nM | 52% | 6500 nM | 29% | > 10000 nM | 56% | 366 nM | 72% | 131 nM |  | 72% | Cc1cc(-c2ccc(-c3cn(C4CCC(=O)NC4=O)c(=O)o3)c(F)c2)nc(N)c1COC1CCOCC1 (stereo not shown) [Example 5, 3-(5-(4-(6-Amino-4-methyl-5-(((tetrahydro-2H-pyran-4-yl)oxy)methyl)pyridin-2-yl)-2-fluorophenyl)-2-oxooxazol-3(2H)-yl)piperidine-2,6-dione]

Continued, molecule first:

Structure (SMILES) | IKZF4 Eos max % deg. observed (IKZF4 Eos) | DC50 (IKZF4 Eos) | IKZF2 Helios max % deg. observed (IKZF2 Helios) | DC50 (IKZF2 Helios) | IKZF1 Ikaros max % deg. observed (IKZF1 Ikaros [1]) | DC50 (IKZF1 Ikaros [1]) | IKZF3 Aiolos max % deg. observed (IKZF3 Aiolos [2]) | DC50 (IKZF3 Aiolos [2]) | IKZF1* Ikaros max % deg. observed (IKZF1 Ikaros [3]) | DC50 (IKZF1 Ikaros [3]) | IKZF3* Aiolos max % deg. observed (IKZF3 Aiolos [4]) | DC50 (IKZF3 Aiolos [4]) | IKZF1 Ikaros Maximum Observed Degradation (IKZF1 Ikaros [3]) | IKZF3 Aiolos Maximum Observed Degradation (IKZF3 Aiolos [4])
O=C1CCC(n2cc(-c3ccc(Br)cc3F)oc2=O)C(=O)N1 (stereo not shown) [Comparative Compound B, 3-(5-(4-bromo-2-fluorophenyl)-2-oxooxazol-3(2H)-yl)piperidine-2,6-dione, reference compound] |  |  |  |  |  |  |  |  | 17% | > 1000 nM | 0% | > 1000 nM | 17% | 0%
O=C1CCC(n2cc(-c3ccccc3)oc2=O)C(=O)N1 (stereo not shown) [Comparative Compound A, 3-(2-oxo-5-phenyloxazol-3(2H)-yl)piperidine-2,6-dione, reference compound] |  |  |  |  |  |  |  |  | 74% | 113 nM | 80% | 21 nM | 74% | 80%
CC1(C)Cc2cc(-c3ccc(-c4cn(C5CCC(=O)NC5=O)c(=O)o4)c(F)c3)nc(N)c2O1 (stereo not shown) [Example 1, 3-(5-(4-(7-amino-2,2-dimethyl-2,3-dihydrofuro[2,3-c]pyridin-5-yl)-2-fluorophenyl)-2-oxooxazol-3(2H)-yl)piperidine-2,6-dione] | 56% | 55 nM | 98% | 52 nM | 51% | 8230 nM | 22% | > 10000 nM | 76% | 53 nM | 76% | 18 nM |  | 
CO[C@H]1C[C@H](Oc2c(C)cc(-c3ccc(-c4cn(C5CCC(=O)NC5=O)c(=O)o4)c(F)c3)nc2N)C1 (relative stereo) [Example 2, trans 3-(5-(4-(6-amino-5-(3-methoxycyclobutoxy)-4-methylpyridin-2-yl)-2-fluorophenyl)-2-oxooxazol-3(2H)-yl)piperidine-2,6-dione] | 62% | 193 nM | 98% | 71 nM | 56% | 950 nM | 25% | > 100000 nM | 53% | 132 nM | 58% | 86 nM |  | 
